Experimental data: patent US9580409B2, “Modulators of opioid receptors and methods of use thereof” (priority 2011, dated 2017)

Target: mu-opioid receptor (Homo sapiens, UniProt P35372)
Assay: biochemical
Details: […]; class symbol combines EC50 and efficacy; read-out: GTP Activity

Sequence of mu-opioid receptor (P35372 whole entry, species assumed): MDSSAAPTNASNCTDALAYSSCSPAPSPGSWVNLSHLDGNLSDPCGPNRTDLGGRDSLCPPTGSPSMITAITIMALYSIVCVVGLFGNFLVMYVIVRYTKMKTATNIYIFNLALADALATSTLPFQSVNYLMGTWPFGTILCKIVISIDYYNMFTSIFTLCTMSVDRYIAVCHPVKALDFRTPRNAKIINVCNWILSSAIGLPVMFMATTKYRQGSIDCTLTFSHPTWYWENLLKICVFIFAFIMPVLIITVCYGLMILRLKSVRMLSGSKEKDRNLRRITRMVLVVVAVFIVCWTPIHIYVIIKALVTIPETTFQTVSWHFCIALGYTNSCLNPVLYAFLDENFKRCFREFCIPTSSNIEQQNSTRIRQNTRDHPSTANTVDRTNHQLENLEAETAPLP

| SMILES | EC50 |
| --- | --- |
| CNC1=C(c2nc3ccccc3[nH]2)C(=O)[C@@](C)(CO)N1c1cc(OC)cc(OC)c1 [compound 211] | 100 to 1000 nM |
| CNC1=C(c2nc3ccccc3[nH]2)C(=O)[C@](C)(CO)N1c1cc(OC)cc(OC)c1 [compound 212] | < 100 nM |
| COc1cc(OC)cc(N2C(N)=C(c3nc4ccccc4[nH]3)C(=O)C2(C)CCO)c1 (stereo not drawn) [compound 216] | 100 to 1000 nM |
| CNC1=C(c2nc3ccccc3[nH]2)C(=O)C(C)(CCO)N1c1cc(OC)cc(OC)c1 (stereo not drawn) [compound 217] | < 100 nM |
| COCCC1(C)C(=O)C(c2nc3ccccc3[nH]2)=C(N)N1c1cc(OC)cc(OC)c1 (stereo not drawn) [compound 219] | 100 to 1000 nM |
| CNC1=C(c2nc3ccccc3[nH]2)C(=O)C(C)(CCOC)N1c1cc(OC)cc(OC)c1 (stereo not drawn) [compound 220] | < 100 nM |
| COc1cc(OC)cc(N2C(N)=C(c3nc4ccccc4[nH]3)C(=O)C2CCCO)c1 (stereo not drawn) [compound 221] | 100 to 1000 nM |
| COc1cc(OC)cc(N2C(N)=C(c3nc4ccccc4[nH]3)C(=O)C2CCN(C)C)c1 (stereo not drawn) [compound 222] | 1000 to 10000 nM |
| COc1cc(OC)cc(N2C(N)=C(c3nc4ccccc4[nH]3)C(=O)C2CCCCO)c1 (stereo not drawn) [compound 223] | 100 to 1000 nM |
| COc1cc(OC)cc(N2C(N)=C(c3nc4ccccc4[nH]3)C(=O)C23CCOCC3)c1 [compound 224] | 100 to 1000 nM |
| CNC1=C(c2nc3ccccc3[nH]2)C(=O)C2(CCOCC2)N1c1cc(OC)cc(OC)c1 [compound 226] | 100 to 1000 nM |
| COc1cc(OC)cc(N2C(N)=C(c3nc4ccccc4[nH]3)C(=O)C2CCc2ccccc2)c1 (stereo not drawn) [compound 229] | 1000 to 10000 nM |
| COc1cc(OC)cc(N2C(N)=C(c3nc4ccccc4[nH]3)C(=O)C2CCOc2ccccc2)c1 (stereo not drawn) [compound 231] | 1000 to 10000 nM |
| COc1cc(OC)cc(N2C(N)=C(c3nc4ccccc4[nH]3)C(=O)C2CCNc2ccccc2)c1 (stereo not drawn) [compound 232] | 100 to 1000 nM |
| COc1cc(OC)cc(N2C(N)=C(c3nc4ccccc4[nH]3)C(=O)C2CCN2CCOCC2)c1 (stereo not drawn) [compound 234] | 100 to 1000 nM |
| COc1cc(OC)cc(N2C(N)=C(c3nc4ccccc4[nH]3)C(=O)C2CCN2CCCC2)c1 (stereo not drawn) [compound 237] | 1000 to 10000 nM |
| COc1cc(OC)cc(N2C(N)=C(c3nc4ccccc4[nH]3)C(=O)C2CCN)c1 (stereo not drawn) [compound 238] | 1000 to 10000 nM |
| COc1cc(OC)cc(N2C(N)=C(c3nc4ccccc4[nH]3)C(=O)C2CCn2ccnc2)c1 (stereo not drawn) [compound 239] | 100 to 1000 nM |
| COc1cc(OC)cc(N2C(N)=C(c3nc4ccccc4[nH]3)C(=O)[C@H]2CCO)c1 [compound 241] | 100 to 1000 nM |
| COc1cc(OC)cc(N2C(N)=C(c3nc4ccccc4[nH]3)C(=O)C2CC(=O)O)c1 (stereo not drawn) [compound 244] | 1000 to 10000 nM |
| CNC(=O)CC1C(=O)C(c2nc3ccccc3[nH]2)=C(N)N1c1cc(OC)cc(OC)c1 (stereo not drawn) [compound 246] | 1000 to 10000 nM |
| COc1cc(OC)cc(N2C(N)=C(c3nc4ccccc4[nH]3)C(=O)C23CN(C(C)=O)C3)c1 [compound 248] | 100 to 1000 nM |
| CCC(=O)N1CC2(C1)C(=O)C(c1nc3ccccc3[nH]1)=C(N)N2c1cc(OC)cc(OC)c1 [compound 249] | 1000 to 10000 nM |
| COc1cc(OC)cc(N2C(N)=C(c3nc4ccccc4[nH]3)C(=O)C23CN(C(=O)c2ccccc2)C3)c1 [compound 250] | 1000 to 10000 nM |
| COc1cc(OC)cc(N2C(N)=C(c3nc4ccccc4[nH]3)C(=O)C23CN(S(C)(=O)=O)C3)c1 [compound 251] | 100 to 1000 nM |
| CNC1=C(c2nc3ccccc3[nH]2)C(=O)C(CCN)N1c1cc(OC)cc(OC)c1 (stereo not drawn) [compound 253] | 100 to 1000 nM |
| COc1cc(OC)cc(N2C(N)=C(c3nc4ccccc4[nH]3)C(=O)C2CCN(C)C(C)=O)c1 (stereo not drawn) [compound 256] | 100 to 1000 nM |

| SMILES | EC50 |
| --- | --- |
| COc1cc(OC)cc(N2C(N)=C(c3nc4ccccc4[nH]3)C(=O)C2CCN(C)C(=O)c2ccccc2)c1 (stereo not drawn) [compound 257] | 100 to 1000 nM |
| COc1cc(OC)cc(N2C(N)=C(c3nc4ccccc4[nH]3)C(=O)[C@]23C[C@H](O)C3)c1 [compound 258] | 100 to 1000 nM |
| CNC1=C(c2nc3ccccc3[nH]2)C(=O)C2(CC(O)C2)N1c1cc(OC)cc(OC)c1 (stereo not drawn) [compound 259] | < 100 nM |
| CNC1=C(c2nc3ccccc3[nH]2)C(=O)[C@]2(C[C@H](O)C2)N1c1cc(OC)cc(OC)c1 [compound 260] | 100 to 1000 nM |
| CNC1=C(c2nc3ccccc3[nH]2)C(=O)[C@@](C)(CCO)N1c1cc(OC)cc(OC)c1 [compound 261] | 100 to 1000 nM |
| CNC1=C(c2nc3ccccc3[nH]2)C(=O)[C@](C)(CCO)N1c1cc(OC)cc(OC)c1 [compound 262] | < 100 nM |
| CNC1=C(c2nc3ccccc3[nH]2)C(=O)C(CO)(CO)N1c1cc(OC)cc(OC)c1 [compound 263] | 100 to 1000 nM |
| CNC1=C(c2nc3ccccc3[nH]2)C(=O)C(CO)(CCl)N1c1cc(OC)cc(OC)c1 (stereo not drawn) [compound 264] | 100 to 1000 nM |
| CNc1c(-c2nc3ccccc3[nH]2)c(=O)n(CCO)n1-c1cc(OC)cc(OC)c1 [compound 265] | 100 to 1000 nM |
| CNc1c(-c2nc3ccccc3[nH]2)c(=O)n(CCOC)n1-c1cc(OC)cc(OC)c1 [compound 266] | < 100 nM |
| CNc1c(-c2nc3ccccc3[nH]2)c(=O)n(CCCO)n1-c1cc(OC)cc(OC)c1 [compound 267] | < 100 nM |
| CNc1c(-c2nc3ccccc3[nH]2)c(=O)n(C2CCC2)n1-c1cc(OC)cc(OC)c1 [compound 269] | 100 to 1000 nM |
| CNc1c(-c2nc3ccccc3[nH]2)c(=O)n(C2COC2)n1-c1cc(OC)cc(OC)c1 [compound 270] | < 100 nM |
| CNc1c(-c2nc3ccccc3[nH]2)c(=O)n(CCNC(C)=O)n1-c1cc(OC)cc(OC)c1 [compound 271] | 100 to 1000 nM |
| CNC1=C(c2nc3ccccc3[nH]2)C(=O)C2(CCCN(C(C)=O)C2)N1c1cc(OC)cc(OC)c1 (stereo not drawn) [compound 273] | 100 to 1000 nM |
| CNC1=C(c2nc3ccccc3[nH]2)C(=O)C2(CNC(=O)C2)N1c1cc(OC)cc(OC)c1 (stereo not drawn) [compound 274] | 100 to 1000 nM |
| CNC1=C(c2nc3ccccc3[nH]2)C(=O)C2(CC(=O)C2)N1c1cc(OC)cc(OC)c1 [compound 275] | < 100 nM |
| CNC1=C(c2nc3ccccc3[nH]2)C(=O)C(C)(CC(C)=O)N1c1cc(OC)cc(OC)c1 (stereo not drawn) [compound 276] | 100 to 1000 nM |
| CNC1=C(c2nc3ccccc3[nH]2)C(=O)C(C)(C(C)=O)N1c1cc(OC)cc(OC)c1 (stereo not drawn) [compound 277] | 100 to 1000 nM |
| CNC1=C(c2nc3ccccc3[nH]2)C(=O)C(C)(c2ccco2)N1c1cc(OC)cc(OC)c1 (stereo not drawn) [compound 278] | 100 to 1000 nM |
| CNC1=C(c2nc3ccccc3[nH]2)C(=O)C(C(C)=O)N1c1cc(OC)cc(OC)c1 (stereo not drawn) [compound 279] | < 100 nM |
| CNC1=C(c2nc3ccccc3[nH]2)C(=O)C(C)(Cc2ccco2)N1c1cc(OC)cc(OC)c1 (stereo not drawn) [compound 280] | 100 to 1000 nM |
| CNC1=C(c2nc3ccccc3[nH]2)C(=O)C(C)(CNC(=O)COC)N1c1cc(OC)cc(OC)c1 (stereo not drawn) [compound 283] | < 100 nM |
| CNC1=C(c2nc3ccccc3[nH]2)C(=O)C(C)(CCNC(C)=O)N1c1cc(OC)cc(OC)c1 (stereo not drawn) [compound 284] | < 100 nM |
| CNC1=C(c2nc3ccccc3[nH]2)C(=O)C(C)(CCNC(=O)COC)N1c1cc(OC)cc(OC)c1 (stereo not drawn) [compound 286] | < 100 nM |
| CNC1=C(c2nc3ccccc3[nH]2)C(=O)C(CNC(=O)COC)N1c1cc(OC)cc(OC)c1 (stereo not drawn) [compound 289] | < 100 nM |
| COc1cc(OC)cc(N2C(N)=C(c3nc4ccccc4[nH]3)C(=O)C23CCCNC3)c1 (stereo not drawn) [compound 293] | 1000 to 10000 nM |
